# Read-outs that look alike come from different tables or passages of the source.
# How the values were obtained:
# Bac. subtilis = test: In vitro minimum inhibitory concentration (MIC), tube dilution test; type: cell-based; details: Bacillus subtilis; Bac. subtilis (07A); brain-heart infusion broth, 20hour incubation at 37° C.; read-out: Minimal Inhibitory Test Conens. (MIC)
# Method: (§1) A. In vitro: mimimum inhibitory concentration (MIC)
# (§2) The compound was tested in a standard bacteriological tube dilution test for MIC for a variety of bacteria. Stock cultures of the bacteria listed in Table 1 were grown in bacterial culture media at 37° C. overnight and diluted in culture tubes to a previously determined concentration proper for the test. The compound was added to result in final concentrations of 10, 2, 0.4 and 0.08 μg/ml. These were incubated for 18 hours at 37° C. and then observed to determine if growth of bacteria had occurred. The lowest concentration of the compound that inhibited bacterial growth in the MIC.
# (§3) *brain-heart infusion broth, 20hour incubation at 37° C.
# Ser. marcescens = test: as above; type: cell-based; details: Serratia marcescens; Ser. marcescens (22); brain-heart infusion broth, 20hour incubation at 37° C.; read-out: Minimal Inhibitory Test Conens. (MIC)
# Method: as §1, §2, §3
# Shiq. dysenteriae = test: as above; type: cell-based; details: 20 h, read-out: Minimal Inhibitory Test Conens. (MIC)
# Method: as §1, §2, §3
# Sal. gallinarum = test: as above; type: cell-based; details: Salmonella enterica, 20 h, brain-heart infusion broth, 20hour incubation at 37° C., read-out: Minimal Inhibitory Test Conens. (MIC)
# Method: as §1, §2, §3
# Strep. pyogenes = test: as above; type: cell-based; details: Streptococcus pyogenes; Strep. pyogenes (10V); brain-heart infusion broth, 20hour incubation at 37° C.; read-out: Minimal Inhibitory Test Conens. (MIC)
# Method: as §1, §2, §3
# Proteus vulgaris = test: as above; type: cell-based; details: Proteus vulgaris (14P); brain-heart infusion broth, 20hour incubation at 37° C.; read-out: Minimal Inhibitory Test Conens. (MIC)
# Method: as §1, §2, §3
# Aero. cloacae = test: as above; type: cell-based; details: Enterobacter cloacae; Aero. cloacae (39A); brain-heart infusion broth, 20hour incubation at 37° C.; read-out: Minimal Inhibitory Test Conens. (MIC)
# Method: as §1, §2, §3
# Sal. typhimurium = test: as above; type: cell-based; details: Salmonella enterica, 20 h, brain-heart infusion broth, 20hour incubation at 37° C., read-out: Minimal Inhibitory Test Conens. (MIC)
# Method: as §1, §2, §3
# Staph. aureus = test: as above; type: cell-based; details: Staphylococcus aureus; Staph. aureus (08F); brain-heart infusion broth, 20hour incubation at 37° C.; read-out: Minimal Inhibitory Test Conens. (MIC)
# Method: as §1, §2, §3
# Kleb. aerobacter = test: as above; type: cell-based; details: Kleb. aerobacter (20F); brain-heart infusion broth, 20hour incubation at 37° C.; read-out: Minimal Inhibitory Test Conens. (MIC)
# Method: as §1, §2, §3
# E. coli = test: as above; type: cell-based; details: Escherichia coli, 20 h, brain-heart infusion broth, 20hour incubation at 37° C., read-out: Minimal Inhibitory Test Conens. (MIC)
# Method: as §1, §2, §3
# Sal. typhi = test: as above; type: cell-based; details: Salmonella enterica, TYPHI, 20 h, brain-heart infusion broth, 20hour incubation at 37° C.
# Method: as §1, §2, §3
# Sal. choleraesuis = test: as above; type: cell-based; details: Salmonella enterica, 20 h, read-out: Minimal Inhibitory Test Conens. (MIC)
# Method: as §1, §2, §3
# Proteus sp. = test: as above; type: cell-based; details: brain-heart infusion broth, 20hour incubation at 37° C., read-out: Minimal Inhibitory Test Conens. (MIC)
# Method: as §1, §2, §3
# [1] = General pharmacology screen in rats; details: rat, in vivo, po; for TD50: doses given in mg./kg
# Pseud. aeruginosa = test: In vitro minimum inhibitory concentration (MIC), tube dilution test; type: cell-based; details: Pseudomonas aeruginosa, 20 h, brain-heart infusion broth, 20hour incubation at 37° C., read-out: Minimal Inhibitory Test Conens. (MIC)
structure (smiles),measurement,setting,value
"O=C(O)c1cn(C(F)F)c2cc3c(cc2c1=O)OCO3 [DFMQ, 1-difluoromethyl-6,7-methylenedioxy-1,4-dihydro-4-oxo-3-quinolinecarboxylic acid]",MIC,Bac. subtilis,< 0.08 µg/mL
same,MIC,Ser. marcescens,0.4 µg/mL
same,MIC,Shiq. dysenteriae,0.4 µg/mL
same,MIC,Sal. gallinarum; Sal. gallinarum (04C),2 µg/mL
same,MIC,Sal. gallinarum; Sal. gallinarum (04D),0.4 µg/mL
same,MIC,Strep. pyogenes,< 0.08 µg/mL
same,MIC,Proteus vulgaris,2 µg/mL
same,MIC,Aero. cloacae,< 0.08 µg/mL
same,MIC,Sal. typhimurium; Sal. typhimurium (03A),0.4 µg/mL
same,MIC,Sal. typhimurium; Sal. typhimurium (03C),0.4 µg/mL
same,MIC,Sal. typhimurium; Sal. typhimurium (03K),< 0.08 µg/mL
same,MIC,Staph. aureus,0.4 µg/mL
same,MIC,Kleb. aerobacter,2 µg/mL
same,MIC,E. coli; E. coli (06-2B),2 µg/mL
same,MIC,E. coli; E. coli (06-2F),0.4 µg/mL
same,MIC,E. coli; E. coli (06-2L),10 µg/mL
same,MIC,E. coli; E. coli (06-2M),< 0.08 µg/mL
same,MIC,E. coli; E. coli (06C),2 µg/mL
same,MIC,E. coli; E. coli (06I),10 µg/mL
same,MIC,E. coli; E. coli (06J),0.4 µg/mL
same,MIC,E. coli; E. coli (06K),0.4 µg/mL
same,MIC,E. coli; E. coli (06L),0.4 µg/mL
same,MIC,E. coli; E. coli (06M),0.4 µg/mL
same,MIC,E. coli; E. coli (06S),0.4 µg/mL
same,MIC,E. coli; E. coli (06V),0.4 µg/mL
same,MIC,E. coli; E. coli (06X),2 µg/mL
same,MIC,E. coli; E.coli (06-2D),2 µg/mL
same,MIC,"Sal. typhi; read-out: Minimal Inhibitory Test Conens. (MIC), Sal. typhi (02A)",2 µg/mL
same,MIC,"Sal. typhi; read-out: Minimal Inhibitory Test Conens. (MIC), Sal. typhi (02B)",0.4 µg/mL
same,MIC,Sal. choleraesuis,< 0.08 µg/mL
same,MIC,Proteus sp.,< 0.08 µg/mL
same,LD50 at 24 h,[1],> 324 mg/kg
same,TD50,[1]; read-out: ED50 Ataxia,> 324 mg/kg
same,TD50,[1]; read-out: ED50 Excitation,> 324 mg/kg
same,TD50,[1]; read-out: ED50 Irritability,> 324 mg/kg
same,TD50,"[1]; rectal temperature, read-out: ED50 Hypertherm.",> 324 mg/kg
same,TD50,"[1]; rectal temperature, read-out: ED50 Hypotherm.",> 324 mg/kg
same,TD50,"[1]; vertical bar loss, read-out: ED50 Vert. Bar",> 324 mg/kg
same,MIC,Pseud. aeruginosa; Pseud. aeruginosa (11B),10 µg/mL
same,MIC,Pseud. aeruginosa; Pseud. aeruginosa (11C),2 µg/mL
same,MIC,Pseud. aeruginosa; Pseud. aeruginosa (11D),10 µg/mL
same,MIC,Pseud. aeruginosa; Pseud. aeruginosa (11G),10 µg/mL
same,MIC,Pseud. aeruginosa; Pseud. aeruginosa (11I),2 µg/mL
same,MIC,Pseud. aeruginosa; Pseud. aeruginosa (11J),10 µg/mL

# Source: patent publication US4216324A, “1-Difluoromethyl-6,7-methylenedioxy-1,4-dihyd ro-4-oxo-3-quinolinecarboxylic acid” (E. I. Du Pont de Nemours and Company, priority 1978, dated 1980)
